Data published in the supplement of paper PMC10307832.

Legend:
Assay in all cases: relative viability (nuclei count vs DMSO), 5 days (fraction); higher = more cells survive
COR-L 105 = test system: COR-L 105
How it was run: (§1)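 Lung cancer cell lines in 1536-well plates were dosed by pin tool the day after seeding, either with one drug alone or with a fixed anchor-drug dose plus five library-drug doses (not always all listed) in √10 steps. After 5 days, cells were fixed and their nuclei stained in one step (final 0.05% Triton X-100, 1% formaldehyde, 1 ug/ml Hoechst), then counted on 4× images. Relative viability is the nuclei count in treated wells divided by that in vehicle wells. Values are medians of duplicate plates.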

NCI-H2228 = test system: NCI-H2228
How it was run: as §1

NCI-H1755 = test system: NCI-H1755
How it was run: as §1

NCI-H2009 = test system: NCI-H2009
How it was run: as §1

NCI-H1993 = test system: NCI-H1993
How it was run: as §1

HOP-62 = test system: HOP-62
How it was run: as §1

NCI-H838 = test system: NCI-H838
How it was run: as §1

UMC-11 = test system: UMC-11
How it was run: as §1

HARA = test system: HARA
How it was run: as §1

NCI-H1793 = test system: NCI-H1793
How it was run: as §1

NCI-H647 = test system: NCI-H647
How it was run: as §1

NCI-H358 = test system: NCI-H358
How it was run: as §1

COR-L23 = test system: COR-L23
How it was run: as §1

HCC-15 = test system: HCC-15
How it was run: as §1

NCI-H1395 = test system: NCI-H1395
How it was run: as §1

SK-MES-1 = test system: SK-MES-1
How it was run: as §1

NCI-H1792 = test system: NCI-H1792
How it was run: as §1

NCI-H2347 = test system: NCI-H2347
How it was run: as §1

NCI-H1355 = test system: NCI-H1355
How it was run: as §1

NCI-H1734 = test system: NCI-H1734
How it was run: as §1

NCI-H2170 = test system: NCI-H2170
How it was run: as §1

Q: For `COc1nc(C)cnc1NS(=O)(=O)c1cccnc1-c1ccc(-c2nnco2)cc1` [Zibotentan] + Cc1nc(NC(=O)N2CCC[C@H]2C(N)=O)sc1-c1ccnc(C(C)(C)C(F)(F)F)c1 [Alpelisib] (partner 2 µM), which relative viability (COR-L 105; first compound 0.08 µM) is on record?
A: 1.13

Q: What about the relative viability (COR-L 105; first compound 0.253 µM) of the same molecule?
A: 0.892

Q: And the relative viability (COR-L 105; first compound 0.8 µM)?
A: 1.21

Q: And the relative viability (COR-L 105; first compound 2.53 µM)?
A: 0.93

Q: And the relative viability (NCI-H2228; first compound 0.08 µM)?
A: 0.66

Q: What about the relative viability (NCI-H2228; first compound 0.253 µM) of the same molecule?
A: 0.652

Q: What about the relative viability (NCI-H2228; first compound 0.8 µM) of the same molecule?
A: 0.59

Q: What about the relative viability (NCI-H2228; first compound 2.53 µM) of the same molecule?
A: 0.873

Q: What about the relative viability (NCI-H1755; first compound 0.08 µM) of the same molecule?
A: 0.887

Q: What about the relative viability (NCI-H1755; first compound 0.253 µM) of the same molecule?
A: 0.911

Q: What about the relative viability (NCI-H1755; first compound 0.8 µM) of the same molecule?
A: 0.937

Q: What about the relative viability (NCI-H1755; first compound 2.53 µM) of the same molecule?
A: 0.94

Q: And the relative viability (NCI-H2009; first compound 0.08 µM)?
A: 1.14

Q: What about the relative viability (NCI-H2009; first compound 0.253 µM) of the same molecule?
A: 1.1

Q: What about the relative viability (NCI-H2009; first compound 0.8 µM) of the same molecule?
A: 1.18

Q: And the relative viability (NCI-H2009; first compound 2.53 µM)?
A: 1.2

Q: What about the relative viability (NCI-H1993; first compound 0.253 µM) of the same molecule?
A: 0.679

Q: What about the relative viability (NCI-H1993; first compound 0.8 µM) of the same molecule?
A: 0.652

Q: And the relative viability (NCI-H1993; first compound 2.53 µM)?
A: 0.766

Q: And the relative viability (HOP-62; first compound 0.08 µM)?
A: 1.01

Q: And the relative viability (HOP-62; first compound 0.253 µM)?
A: 1.03

Q: And the relative viability (HOP-62; first compound 0.8 µM)?
A: 1.12

Q: And the relative viability (HOP-62; first compound 2.53 µM)?
A: 0.911

Q: What about the relative viability (NCI-H838; first compound 0.08 µM) of the same molecule?
A: 0.957

Q: What about the relative viability (NCI-H838; first compound 0.253 µM) of the same molecule?
A: 1.01

Q: What about the relative viability (NCI-H838; first compound 0.8 µM) of the same molecule?
A: 0.956

Q: What about the relative viability (NCI-H838; first compound 2.53 µM) of the same molecule?
A: 1.05

Q: And the relative viability (UMC-11; first compound 0.08 µM)?
A: 0.861

Q: And the relative viability (UMC-11; first compound 0.253 µM)?
A: 0.961

Q: What about the relative viability (UMC-11; first compound 0.8 µM) of the same molecule?
A: 0.925

Q: And the relative viability (UMC-11; first compound 2.53 µM)?
A: 0.971

Q: What about the relative viability (HARA; first compound 0.08 µM) of the same molecule?
A: 0.856

Q: What about the relative viability (HARA; first compound 0.253 µM) of the same molecule?
A: 0.764

Q: What about the relative viability (HARA; first compound 0.8 µM) of the same molecule?
A: 0.686

Q: And the relative viability (HARA; first compound 2.53 µM)?
A: 0.89

Q: What about the relative viability (NCI-H1793; first compound 0.08 µM) of the same molecule?
A: 0.821

Q: What about the relative viability (NCI-H1793; first compound 0.253 µM) of the same molecule?
A: 0.53

Q: And the relative viability (NCI-H1793; first compound 0.8 µM)?
A: 0.852

Q: And the relative viability (NCI-H1793; first compound 2.53 µM)?
A: 0.713

Q: What about the relative viability (NCI-H647; first compound 0.08 µM) of the same molecule?
A: 1.29

Q: What about the relative viability (NCI-H647; first compound 0.253 µM) of the same molecule?
A: 0.92

Q: What about the relative viability (NCI-H647; first compound 0.8 µM) of the same molecule?
A: 1.28

Q: What about the relative viability (NCI-H647; first compound 2.53 µM) of the same molecule?
A: 1.24

Q: What about the relative viability (NCI-H358; first compound 0.08 µM) of the same molecule?
A: 1

Q: What about the relative viability (NCI-H358; first compound 0.8 µM) of the same molecule?
A: 0.891

Q: What about the relative viability (NCI-H358; first compound 2.53 µM) of the same molecule?
A: 0.848

Q: What about the relative viability (COR-L23; first compound 0.08 µM) of the same molecule?
A: 0.847

Q: What about the relative viability (COR-L23; first compound 0.253 µM) of the same molecule?
A: 0.655

Q: And the relative viability (COR-L23; first compound 0.8 µM)?
A: 0.831

Q: And the relative viability (COR-L23; first compound 2.53 µM)?
A: 0.824

Q: What about the relative viability (HCC-15; first compound 0.08 µM) of the same molecule?
A: 0.954

Q: And the relative viability (HCC-15; first compound 0.253 µM)?
A: 0.884

Q: And the relative viability (HCC-15; first compound 0.8 µM)?
A: 0.869

Q: And the relative viability (HCC-15; first compound 2.53 µM)?
A: 0.844

Q: And the relative viability (NCI-H1395; first compound 0.08 µM)?
A: 1.28

Q: And the relative viability (NCI-H1395; first compound 0.253 µM)?
A: 0.993

Q: What about the relative viability (NCI-H1395; first compound 0.8 µM) of the same molecule?
A: 1.18

Q: What about the relative viability (NCI-H1395; first compound 2.53 µM) of the same molecule?
A: 1.42

Q: What about the relative viability (SK-MES-1; first compound 0.08 µM) of the same molecule?
A: 0.947

Q: What about the relative viability (SK-MES-1; first compound 0.253 µM) of the same molecule?
A: 0.871

Q: And the relative viability (SK-MES-1; first compound 0.8 µM)?
A: 0.948

Q: What about the relative viability (SK-MES-1; first compound 2.53 µM) of the same molecule?
A: 0.989

Q: And the relative viability (NCI-H1792; first compound 0.08 µM)?
A: 0.621

Q: And the relative viability (NCI-H1792; first compound 0.253 µM)?
A: 0.58

Q: What about the relative viability (NCI-H1792; first compound 0.8 µM) of the same molecule?
A: 0.559

Q: What about the relative viability (NCI-H1792; first compound 2.53 µM) of the same molecule?
A: 0.648

Q: What about the relative viability (NCI-H2347; first compound 0.08 µM) of the same molecule?
A: 1.15

Q: What about the relative viability (NCI-H2347; first compound 0.253 µM) of the same molecule?
A: 1.04

Q: And the relative viability (NCI-H2347; first compound 0.8 µM)?
A: 1.09

Q: And the relative viability (NCI-H2347; first compound 2.53 µM)?
A: 1.08

Q: And the relative viability (NCI-H1355; first compound 0.08 µM)?
A: 0.942

Q: And the relative viability (NCI-H1355; first compound 0.253 µM)?
A: 0.898

Q: What about the relative viability (NCI-H1355; first compound 0.8 µM) of the same molecule?
A: 0.825

Q: And the relative viability (NCI-H1355; first compound 2.53 µM)?
A: 0.794

Q: And the relative viability (NCI-H1734; first compound 0.08 µM)?
A: 0.794

Q: And the relative viability (NCI-H1734; first compound 0.253 µM)?
A: 0.726

Q: What about the relative viability (NCI-H1734; first compound 0.8 µM) of the same molecule?
A: 0.681

Q: What about the relative viability (NCI-H1734; first compound 2.53 µM) of the same molecule?
A: 0.686

Q: And the relative viability (NCI-H2170; first compound 0.08 µM)?
A: 0.802

Q: And the relative viability (NCI-H2170; first compound 0.253 µM)?
A: 0.791

Q: What about the relative viability (NCI-H2170; first compound 0.8 µM) of the same molecule?
A: 0.889

Q: And the relative viability (NCI-H2170; first compound 2.53 µM)?
A: 0.835
